Data as given in patent US20260315499A1, “2'- {HETEROCYCLYL (ARYL/ALKYL) METHYL} - CANNABIDIOL COMPOUNDS AND PROCESS FOR PREPARATION THEREOF” (COUNCIL OF SCIENTIFIC & INDUSTRIAL RESEARCH, priority 2023, published 2026).
Several values for one entry are separate records, joined by “and”; a condition that tells them apart may be missing. Equal entries are not always repeated. Where two headings read alike, the source gives them in different places.

Assays:
[1] = test system: nitric oxide (NO) production in RAW264.7 macrophages; test: In vitro anti-inflammatory activity: nitric oxide production (Griess) in LPS-exposed RAW264.7 macrophages; type: cell-based, mouse; settings: LPS 24 hrs
Protocol: Measurement of Nitric oxide: RAW264.7 macrophages were seeded in 96-well plates with a density of 0.5×10^5 cells/well and incubated overnight at 37° C. in a 5% CO2 atmosphere. The cells were treated with different concentration of CBD and its analogues and exposed to LPS for 24 hrs. For nitric oxide (NO) determination, the cell culture supernatant was taken and mixed with equal volume of Griess reagent in another 96 well plate at room temperature (Biomed Pharmacother., 2017, 92, 175-186). The absorbance was measured at 540 nm. The final calculations were determined on a NaNO2 standard curve.

[2] = Cell viability assay in differentiated neuronal cells (MTT), N2A; type: cell-based; settings: mouse, read-out: % Cell viability ± SD, N2A
Text: (§1) In the present disclosure outlined herein, a focused library of cannabidiol analogues were studied for possible neuro-protective potential employing cell line-based stress model systems which mimic the biological stress conditions in vitro (J Cell Biochem., 2018, 119(8), 6482-6491).
(§2) Human neuroblastoma cells (SHSY5Y) and mouse neuroblastoma cells (N2A) were procured from American Type Culture Collection (ATCC). SHSY5Y cell cultures were maintained in DMEM F12 (Invitrogen) whereas N2A were cultured in DMEM (Invitrogen) with 10% Fetal Bovine Serum (Gibco) medium, subjected to differentiation to acquire neuronal morphology (employing differentiation media DMEM-F12, 3-5% FBS, (For differentiation, low concentration of FBS was used) and 50 μM retinoic acid). Differentiated cells were later seeded into 96 well plates, at a density of 1×10^4 before being incubated for 48 hrs with the synthesized library. The exhausted culture media was substituted with new culture media containing 0.5 mg/ml MTT dye. Eventually, the OD at 490 nm excitation was measured using a 96-well plate reader. The proportion of viable cells was determined as percentage of absorbance of untreated cultures relative to control.

[3] = Cell viability assay in macrophage RAW264.7 cells (MTT); type: cell-based; settings: mouse, read-out: % cell viability ± SD
Protocol: RAW264.7 cells were seeded in 96-well cell culture plates at a density of 1×10^4 cells per well and incubated overnight at 37° C. with 5% CO2. Next day, the cells were treated with CBD or its derivatives at 5 μM and/or 10 μM concentration for 24 hrs. The MTT dye (2.5 mg/ml, 20 μL) was added to each well 4 hrs before termination (Molecules. 2022, 27, 8068). After 4 hrs of incubation with MTT, the supernatant was discarded, and the formazan crystals were dissolved by adding 100 μL DMSO. The absorbance was recorded at 540 nm on microplate reader (Tecan Infinite Pro).

[4] = test system: TrkB stable cells SHSY5Y; test: Cytoprotective effect in TrkB stable cells SHSY5Y, 96 hrs; type: cell-based, human; settings: Homo sapiens, SH-SY5Y, 96 h
Protocol: In another experiment, the cytoprotective effect of A1 as well as parent molecule B1 was determined in TrkB stable cells SHSY5Y.

[5] = Cell viability assay in differentiated neuronal cells (MTT), SHSY5Y; type: cell-based; settings: human, read-out: % Cell viability ± SD, SHSY5Y
Text: as §1, §2

[6] = test system: depression mice model; test: In vivo corticosterone induced depression model: Tail Suspension Test (TST); design: species or system mouse (male C57)
Protocol: A1 (20 mg/kg, oral) dissolved in normal saline was given for 3 consecutive weeks following corticosteroid stress. The sucrose preference test was employed, tail suspension test, and forced swim test to evaluate behavioral distress.
Tail Suspension Test (TST) is a behavioral test employed to assess perturbations expected to influence depression like phenotypes. TST is grounded on the reflection that the extent of immobility is allied with depressing phenotype of mice overturned by antidepressants. Mice were positioned 2 cm from their tail tips and 5 cm above the ground suspending the tails using adhesive tape for the free movement (Acta Neuropathol Commun., 2016, 4(1), 108).
The contemporary immobility was alluded to as interruption in motion, where a blind assessor evaluates the disappointed aspect of display before scoring it.

[7] = test system: p TrkB 816; test: Survival pathway protein expression by western blotting in SHSY5Y; type: cell-based, human
Protocol: (§3) Here, A1 was tested to find its role in eliciting survival pathway proteins in differentiated human neuroblastoma cells in concentration and time dependent manner.
(§4) To investigate the effect of A1 on the survival proteins, SHSY5Y cell cultures were treated with different concentrations for 6 hrs and analyzed for the expression of survival proteins, including p-Erk 44/42, p-AKT 473, Anti BDNF, and p TrkB 816 and p TrKB 515 by western blotting.

[8] = test system: Anti BDNF; test: as above; type: cell-based, human; settings: after corticosterone insult
Protocol: as §3, §4

[9] = test system: p-Erk 44/42; test: as above; type: cell-based, human; settings: after corticosterone insult
Protocol: as §3, §4

[10] = test system: p TrkB 515; test: as above; type: cell-based, human
Protocol: as §3, §4

[11] = test system: depression mice model; test: In vivo corticosterone induced depression model: Forced Swim Test; design: species or system mouse (male C57)
Protocol: (§5) In vivo efficacy (ameliorates behavioral despair) of A1 in corticosterone induced model of stress (J. Neurochem., 2018 146, 722 734). […] A1 (20 mg/kg, oral) dissolved in normal saline was given for 3 consecutive weeks following corticosteroid stress. The sucrose preference test was employed, tail suspension test, and forced swim test to evaluate behavioral distress. We noticed that A1 can resurrect mice in stressful situations. […]
The forced swim test was employed to evaluate behavioral melancholy in depressed subjects. Each animal was individually conditioned in a glass cylinder 20 cm long, 10 cm deep and 14 cm radius of curvature. After being submerged in water for 5 mins, the mice's cumulative stationary episode, struggle in water, and eventual floating condition were evaluated. The duration for which the animals were motionless while attempting to hold both of their front limbs still was calculated by interpreting the visualizations portraying behavioral despair (Front Behav Neurosci., 2018, 12, 42).

[12] = In vivo corticosterone induced depression model: effect on body weight; design: species or system mouse (male C57); settings: 21 days
Protocol: as §5

[13] = test system: Anti BDNF; test: Survival pathway protein expression by western blotting in SHSY5Y; type: cell-based, human; settings: Cort. 400 μM, 6 hrs
[14] = test system: p-Erk 44/42; test: as above; type: cell-based, human; settings: Cort. 400 μM, 6 hrs
[15] = test system: depression mice model; test: In vivo corticosterone induced depression model: sucrose preference test; design: species or system mouse (male C57); settings: 2% sucrose, 21 days
Protocol: as §5
Sucrose consumption was employed to evaluate anhedonia, a core hallmark of depression in mice. The animals were allowed unfettered access to both identical bottles, one containing water while the other contained a 2% solution of sucrose, for 21 days.
The below equation was later employed to determine water and sugar consumed by mice:
Sucrose Preference=Sucrose consumed[…]/Total fluid intake.

[16] = test system: p-AKT 473; test: Survival pathway protein expression by western blotting in SHSY5Y; type: cell-based, human
Protocol: as §3
To investigate the effect of A1 on the survival proteins, […] of survival proteins, including p-Erk 44/42, p-AKT 473, Anti BDNF, and p TrkB 816 and p TrKB 515 by western blotting.

[17] = Cort. alone, listed as corticosterone
[18] = without Cort., A1 20 mg/kg, fluoxetine 18 mg/kg

Q: For C=C(C)[C@@H]1CCC(C)=C[C@H]1c1c(O)cc(CCCCC)cc1O [B1, cannabidiol], which inhibition at 5 µM ([1]; Mus musculus, RAW264.7, 5 μM, read-out: % NO Inhibition ± SD) is on record?
A: Its inhibition at 5 µM is 24.3 ± 3.2%.

Q: And the inhibition at 10 µM ([1]; Mus musculus, RAW264.7, 10 μM, read-out: % NO Inhibition ± SD)?
A: The inhibition at 10 µM was 38.3 ± 3.7%.

Q: And the “production of NO (in words)” value ([1]; pre-treated)?
A: Its value is “decreased”.

Q: And the viability at 48 h, 20 µM [2]?
A: Its viability at 48 h, 20 µM is 107 ± 1.53%.

Q: What about the viability at 24 h, 5 µM ([3]; RAW264.7, 5 μM) of the same compound?
A: Its viability at 24 h, 5 µM is 95.5 ± 1.5%.

Q: What about the viability at 24 h, 10 µM ([3]; RAW264.7, 10 μM) of the same compound?
A: The viability at 24 h, 10 µM was 91 ± 1.6%.

Q: What about the viability at 20 µM ([4]; read-out: % Cell viability ± SD, test compound 20 μM + Cort. 400 μM, 96 hrs) of the same compound?
A: Its viability at 20 µM is 86.7 ± 1.16%.

Q: And the viability at 20 µM ([4]; read-out: % Cell viability ± SD, test compound alone, 20 μM, 96 hrs)?
A: Its viability at 20 µM is 102 ± 1.06%.

Q: What about the viability at 48 h, 20 µM [5] of the same compound?
A: Its viability at 48 h, 20 µM is 108 ± 1.13%.

Q: With C[C@]12C[C@H](O)[C@H]3[C@@H](CCC4=CC(=O)CC[C@@]43C)[C@@H]1CC[C@@H]2C(=O)CO [Cort., corticosterone, reference compound] as the compound, how does the “% Immobility (sec) ± SD (dead time)” value ([6]; Cort. alone) read?
A: The value was 52.32 ± 9.96 s.

Q: What about the “% Latency to immobility (sec) ± SD” value ([6]; Cort. alone) of the same compound?
A: Its value is 6.97 ± 4.52 s.

Q: And the “% Immobility (sec) ± SD (dead time)” value [6, 17]?
A: The value was 52.32 ± 9.96 s.

Q: What about the “% Latency to immobility (sec) ± SD” value [6, 17] of the same compound?
A: Its value is 6.97 ± 4.52 s.

Q: And the “Relative Protein Expression p TrkB 816” value ([7]; Cort. 400 μM, 6 hrs)?
A: The value was 0.36.

Q: What about the “p TrkB 816 level (in words)” value ([7]; after corticosterone insult) of the same compound?
A: Its value is “decrease”.

Q: What about the “anti BDNF level (in words)” value [8] of the same compound?
A: Its value is “decrease”.

Q: And the “p-Erk 44/42 level (in words)” value [9]?
A: The value was “decrease”.

Q: And the “Relative Protein Expression p TrkB 515” value ([10]; Cort. 400 μM, 6 hrs)?
A: The value was 0.15.

Q: What about the “p TrkB 515 level (in words)” value ([10]; after corticosterone insult) of the same compound?
A: The value was “decrease”.

Q: And the “% Immobility (sec) ± SD (dead time)” value ([11]; Cort. alone 35 μg/ml)?
A: Its value is 67.15 ± 12.32 s.

Q: And the “% Latency to immobility (sec) ± SD” value ([11]; Cort. alone 35 μg/ml)?
A: Its value is 16.14 ± 5.68 s.

Q: What about the “Weight (g) ± SD” value ([12]; Cort. alone 35 μg/ml, negative control) of the same compound?
A: The value was 29.57 ± 3.90 g.

Q: What about the “Weight (g) ± SD” value ([12]; Cort. alone 35 μg/ml, negative control, listed as corticosterone) of the same compound?
A: The value was 27.40 ± 1.91 g.

Q: What about the “Relative Protein Expression Anti BDNF” value [13] of the same compound?
A: Its value is 0.10.

Q: And the “Relative Protein Expression p ERK 44/42” value [14]?
A: Its value is 0.36.

Q: What about the “% Sucrose consumption (ml) ± SD” value ([15]; Cort. alone, negative control) of the same compound?
A: The value was 43.50 ± 3.35%.

Q: And the “% Sucrose consumption (ml) ± SD” value ([15]; Cort. alone, negative control, listed as corticosterone)?
A: Its value is 43.50±3.35%.

Q: What about the “Relative Protein Expression PAKT 473” value ([16]; Cort. 400 μM, 6 hrs) of the same compound?
A: The value was 0.01.

Q: What about the “p-AKT 473 level (in words)” value ([16]; after corticosterone insult) of the same compound?
A: Its value is “decrease”.

Q: Which “% Latency to immobility (sec) ± SD” value ([6]; with Cort. 35 μg/ml, A1 20 mg/kg, fluoxetine 18 mg/kg) does the source give for CNCCC(Oc1ccc(C(F)(F)F)cc1)c1ccccc1 (stereo not drawn) [Fluoxetine] here?
A: The value was 34.79 ± 6.38 s.

Q: What about the “% Latency to immobility (sec) ± SD” value ([6]; with Cort. 35 μg/ml, A1 20 mg/kg, fluoxetine 18 mg/kg, listed as fluoxetine) of the same compound?
A: Its value is 34.79 ± 6.38 s.

Q: And the “% Immobility (sec) ± SD (dead time)” value [6, 18]?
A: Its value is 19.61 ± 7.90 s and 19.61 s.

Q: And the “% Latency to immobility (sec) ± SD” value [6, 18]?
A: The value was 49.51 ± 7.84 s and 49.51 ± 7.82 s.

Q: What about the “% Immobility (sec) ± SD (dead time)” value ([11]; with Cort.) of the same compound?
A: The value was 47.84 ± 10.33 s.

Q: What about the “% Latency to immobility (sec) ± SD” value ([11]; with Cort.) of the same compound?
A: Its value is 34.06 ± 11.21 s.

Q: And the “% Immobility (sec) ± SD (dead time)” value ([11]; with Cort., listed as fluoxetine)?
A: Its value is 47.84 ± 10.33 s.

Q: What about the “% Immobility (sec) ± SD (dead time)” value ([11]; without Cort.) of the same compound?
A: The value was 22.39 ± 4.91 s.

Q: What about the “% Latency to immobility (sec) ± SD” value ([11]; without Cort.) of the same compound?
A: Its value is 55.34 ± 15.71 s.

Q: And the “Weight (g) ± SD” value ([12]; with Cort. 35 μg/ml, A1 20 mg/kg oral, fluoxetine 18 mg/kg)?
A: Its value is 38 ± 2.16 g.

Q: And the “Weight (g) ± SD” value ([12]; without Cort., A1 20 mg/kg oral, fluoxetine 18 mg/kg)?
A: The value was 40.42 ± 2.25 g.

Q: And the “% Sucrose consumption (ml) ± SD” value ([15]; with Cort.)?
A: The value was 72.39 ± 2.69%.

Q: What about the “% Sucrose consumption (ml) ± SD” value ([15]; without Cort.) of the same compound?
A: The value was 82.10 ± 0.29%.
